According to US20250002972A1, “METHOD FOR MEASURING SOMATIC DNA MUTATION AND DNA DAMAGE PROFILES AND A […] SUITABLE THEREFORE” (Albert Einstein College of Medicine, priority 2021, published 2025):
Several values for one entry are separate records, joined by “and”; a condition that tells them apart may be missing. Equal entries are not always repeated.

Columns and labels:
[1] = system: Human normal lung IMR90 fibroblasts; assay: SMM-Seq detection of induced somatic SNVs in IMR90 cells treated with ENU; type: cell-based; conditions: for sSNVs frq / mutation spectra: CA count / mutation spectra: CG count / mutation spectra: CT count / mutation spectra: TA count / mutation spectra: TC count / mutation spectra: TG count: 72 hours; for sSNVs frq / sSNVs count: single biological replicate; for sSNVs frq: variants / qualified positions (SNV/1 Mb); for mutation spectra: CA count / mutation spectra: CG count / mutation spectra: CT count / mutation spectra: TA count / mutation spectra: TC count / mutation spectra: TG count: single replicate; for sSNVs count: harvested 72 hours after ENU
Procedure: Human normal lung IMR90 fibroblasts were maintained in 10% CO2 and 3% O2 atmosphere at 37° C. in DMEM (GIBCO, Grand Island, NY, USA) supplemented with 10% FBS (GIBCO). Twenty-four hours after cell seeding the culturing media was changed for media containing different doses of ENU. Cells were harvested 72 hours after ENU was applied. Complete media supplemented with ENU (SIGMA, San Louis, MO, USA) was prepared immediately before application from stock solution (100 mg/ml in 100% ethyl alcohol). Control cells were cultured in the presence of the vehicle only.
DNA from fibroblasts and hepatocytes was isolated using Quick-gDNA™ Blood MiniPrep (Zymo Research Corporation, Irvine, CA, USA) according to the manufacturer instructions and quantified using QUBIT kit (ThermoFisher Scientific, USA).
Genomic DNA was first fragmented by double digestion with restriction endonucleases AluI and MluCI (NEB, USA), overnight at 37° C. After purification using 1.5×AMPure XP beads (Beckman Coulter, USA) the fragmented DNA was further processed using NEBNext Ultra II DNA Library Prep Kit for Illumina (NEB). The adapter provided with the kit was replaced with custom adapter P5_HP6N. After double sided size-selection using AMPure XP beads (Beckman Coulter), resulting dumbbell-like product was quantified with QUBIT kit (ThermoFisher) and analyzed on 2100 Bioanalyzer instrument with High Sensitivity DNA kit (Agilent, USA). To prepare P5_HP6N adapter 86 μl of 10 μM solution of oligonucleotide 5′-TCTTC TACAGT NNNNNN AGATCG GAAGAG CACACG TCTGAA CTCCAG TC/ideoxyU/ACACTC TTTCCC TACACG ACGCTC TTCCGA TCT-3′ (IDT, USA) in 0.1×TE buffer was first exposed to 95° C. for 5′ followed by 37° C. for 5′ to form a hairpin. Next, to fill-in the extending 5′-end the self-annealed oligonucleotide was supplemented with 10 μl of Cutsmart buffer (NEB), 2 μl of 10 mM dNTPs mix (NEB) and 10 U of Klenow Fragment (3′→5′ exo-) (NEB) and incubated at 37° C. for 30′. After purification with QIAquick Nucleotide Removal Kit (QIAGEN, USA), the hairpins were digested with 10U of HpyCH4III (NEB) for 1 hour at 37° C., then purified again with QIAquick Nucleotide Removal Kit (QIAGEN) and eluted with 100 μl of EB to obtain ready to use adapter solution.
Next, for SMM sequencing library preparation samples were diluted based on assessed molar concentration. Assuming 150PE sequencing mode and 30 Gb of data per sample, the dilution coefficient (D) was calculated using the formula D=M*NA/1025, where M—sample concentration (pM); NA—Avogadro constant. Next, 1 μl of diluted sample was used as a template in pulse-RCA reaction. The pulse-RCA was performed in 20 μl reaction containing 1 μl of diluted sample, 1 μl of P5-RCA oligo (5′-[…]-3′), 25U (0.5 μl) of SD polymerase HS (BIORON Diagnostics GmbH, Germany), 2 μl of SD polymerase buffer, 1 μl of 10 mM dNTPs mix (NEB), 0.6 μl of 100 mM MgCl2, and 13.9 μl of water. The pulse-RCA program was set as follows: 92° C. for 2′ (1); 92° C. for 30″ (2); 60° C. for 30″ (3); 65° C. for 150″ (4); go to (3) 9 times; hold at 4° C. Product of amplification reaction was purified with […] AMPure XP beads and resuspended in 23 μl TE buffer. The entire volume of RC amplification was PCR amplified in 50 μl reaction volume containing 23 μl of RCA product, 25 μl of NEBNext Ultra II Q5 Master Mix and 1 μl of P5 and P7 dual index oligos. The PCR program was set as follows: 98° C. for 30″ (1); 98° C. for 10″ (2); 65° C. for 75″ (3); go to (2) 8 times (4); 65° C. for 5′ (5); 4° C. forever. The PCR product was purified with 0.7×AMPure XP beads and resuspended in 30 μl of TE buffer. After quantification with Qubit, samples were pooled and sequenced on Illumina NovaSeq instrument using 150 paired-end mode.
Conventional sequencing library was prepared by PCR amplification of adapter ligated samples in 30 μl reaction volume containing 11 μl of undiluted ligated sample, 2U of USER enzyme (NEB) 15 μl of NEBNext Ultra II Q5 Master Mix and 1 μl of P5 and P7 dual index oligos. […]

IMR90 cells = assay: Cell death of IMR90 cells at the ENU doses used; type: cell-based, human; conditions: sub-lethal doses of ENU (25 and 50 μg/ml)
[2] = system: human primary mammary cells; assay: SMM-SV somatic structural variant (SV) frequency after bleomycin; type: cell-based; conditions: two different doses of bleomycin, SMM-SV (FIG. 9C)
Source text: As explained, SMM is capable of identifying SNVs and small indels, but not SVs. This is due to the overwhelming amount of chimeric DNA fragments created during library construction. For SMM-seq and other single-molecule assays the process of linking DNA fragments to the sequencing adapters also results in random ligation of DNA fragments to each other. The resulting chimeric sequences are not distinguishable from true SVs since both strands are identical and represent the same SV (FIG. 9A). To address this problem, we used transposase-mediated tagmentation, i.e., the initial step in library preparation where high molecular weight DNA is cleaved and tagged for analysis. While commonly used in library preparation, we used it here in a different, unexpected way. Indeed, as commonly used tagmentation generates priming sites for subsequent PCR which in turn is prone to produce artificial chimeras, giving a similar problem as other approaches. […] To validate SMM-SV we evaluated somatic SV frequency in human primary mammary cells treated with two different doses of bleomycin, a potent […] known to induce somatic SVs. […]

[3] = Cond E25 (ENU 25 μg/ml), IMR90 cells
[4] = Cond E50 (ENU 50 μg/ml), IMR90 cells
[5] = IMR90 cells upon ENU treatment, mutational spectra (FIG. 2C)

Compound: CCN(N=O)C(N)=O [ENU, N-ethyl-N-nitrosourea]
- sSNVs frq [1, 3]: 0.411 and 0.3226 and 0.3595
- mutation spectra: CA count [1, 3]: 19 and 16 and 12
- mutation spectra: CG count [1, 3]: 7 and 8 and 4
- mutation spectra: CT count [1, 3]: 10 (2×) and 11
- mutation spectra: TA count [1, 3]: 13 and 10 and 16
- mutation spectra: TC count [1, 3]: 18 and 22 and 20
- mutation spectra: TG count [1, 3]: 9 and 12 and 7
- sSNVs count [1, 3]: 76 and 78 and 70
- sSNVs frq [1, 4]: 0.571 and 0.5406
- mutation spectra: CA count [1, 4]: 24 and 16
- mutation spectra: CG count [1, 4]: 2 and 6
- mutation spectra: CT count [1, 4]: 32 and 16
- mutation spectra: TA count [1, 4]: 38 and 20
- mutation spectra: TC count [1, 4]: 28 and 23
- mutation spectra: TG count [1, 4]: 17 and 9
- sSNVs count [1, 4]: 141 and 90
- increase of mutation frequency versus control ([1]; ENU 50 μg/ml, IMR90 cells): more than 2 fold
- mutation frequency ([1]; ENU 50 μg/ml, IMR90 cells, average±SD of three biological replicates, control 0.21±0.02, p=9.7*10-5): 0.54±0.03 SNV/1 Mb
- relative representation of AT/CG mutations versus untreated control cells [1, 5]: more than 2 times
- relative representation of AT/TA mutations versus untreated control cells [1, 5]: more than 2 times
- cell death (IMR90 cells): do not cause any noticeable cell death

Compound: bleomycin
- somatic SV frequency [2]: induced SVs in a dose-dependent manner
